Reference: US4435329A, “Substituted N-(ω-aroylpropionyl) derivatives of α-amino acids and esters thereof” (American Cyanamid Company, priority 1981, dated 1984)

System: angiotensin converting enzyme
Assay: in vitro spectrophotometric assay for inhibition of angiotensin converting enzyme (method of Cushman and Cheung)
Assay type: biochemical
Settings: crude extract of ACE from rabbit lung acetone powder; substrate benzoyl-glycyl-histidyl-leucine; 30 minutes at 37° C.; result in words only
Description: The in vitro activity for inhibition of the angiotensin converting enzyme was measured by the method of D. W. Cushman and H. S. Cheung, Biochem. Pharmacol., Vol. 20, pages 1637-1648 (1972), using benzoyl-glycyl-histidyl-leucine as the substrate. The reaction mixture consisted of 50 μl. of potassium phosphate (500 mM., pH of […]), 30 μl. of sodium chloride (2500 mM.), 25 μl. of substrate (50 mM.), 30 to 50 μl. of the crude extract of ACE, 10 μl. of the test compound (2.5 mM.) or vehicle, and a suitable amount of distilled water to give a total volume of 250 μl. This reaction mixture was incubated for 30 minutes at 37° C. and the reaction was then terminated by the addition of 250 μl. of 1 N hydrochloric acid. The hippuric acid was then extracted with 1.5 ml. of ethyl acetate by vortex mixing for 15 seconds. After centrifugation, one ml. of the ethyl acetate layer was pipetted into a new tube and evaporated to dryness. The extracted hippuric acid was then dissolved in one ml. of water and the amount of this acid was then measured by its absorbance at 228 nm. […] The activity of the ACE inhibitor was calculated as the percent inhibition of ACE activity compared to the control value of that particular assay. […]

| Compound | inhibition of the angiotensin converting enzyme |
| --- | --- |
| CC(=O)SC(CC(=O)N[C@H](C(=O)O)C(C)C)C(=O)c1ccc(Br)cc1 (stereo partly drawn) [Example 1, N-[3-Acetylthio-3-(4-bromobenzoyl)propionyl]-L-valine] | angiotensin converting enzyme inhibitors |
| COc1ccc(C(=O)C(CC(=O)N[C@@H](Cc2ccccc2)C(=O)O)SC(C)=O)cc1F (stereo partly drawn) [Example 23, N-[3-Acetylthio-3-(3-fluoro-4-methoxybenzoyl)propionyl]-L-phenylalanine] | angiotensin converting enzyme inhibitors |
